Results as given in US11807627B2, “Morphic forms of complement factor D inhibitors” (priority 2018, dated 2023).

Columns and labels:
Format in all cases: physicochemical
[1] = Polarized light microscopy (PLM); conditions: Table 27A
Procedure: The presence of crystallinity (birefringence) was determined using an Olympus BX50 microscope, equipped with cross-polarizing lenses and a Motic camera. Images were captured using Motic Images Plus 2.0. All images were recorded using the 20×objective, unless otherwise stated. All samples were prepared using silicone oil and covered with a cover slip before PLM analysis was completed.

[2] = Solubility in selected media (FaSSIF, FeSSIF, FaSSGF, pH 4 citrate, pH 6.8 phosphate)
Procedure: Solubility within selected media (FaSSIF, FeSSIF, FaSSGF, pH 4 citrate and pH 6.8 phosphate) was measured to be <0.01 mg/mL.
The pH 4 citrate buffer was prepared by dissolving sodium citrate (987 mg) and citric acid (1.28 g) in 100 mL H2O. The pH was adjusted to 4. The pH 6.8 phosphate buffer was prepared by dissolving dibasic sodium phosphate dihydrate (873 mg) and monobasic sodium phosphate monohydrate (708 mg) in 100 mL H2O. The pH was adjusted to 6.8. The FaSSIF media was prepared with sodium hydroxide (108 mg), sodium chloride (1.55 g) and monobasic sodium phosphate dihydrate (1.12 g) in H2O (0.25 L) and the pH adjusted to 6.5. FaSSIF/FeSSIF/FaSSGF (0.56 g) was dissolved in the buffer and mixed until opalescent. The FeSSIF media was prepared by dissolving sodium hydroxide (1.01 g), sodium chloride (2.96 g) and glacial acetic acid (2.97 g) in H2O (0.25 L) and the pH adjusted to pH 5. FaSSIF/FeSSIF/FaSSGF (2.81 g) was dissolved in the buffer and thoroughly mixed. The FaSSGF media was prepared by dissolving FaSSIF/FeSSIF/FaSSGF (0.06 g) in a solution of sodium chloride (2.00 g) dissolved in H2O (1 L) and mixing thoroughly.

[3] = Variable temperature XRPD (VT-XRPD); conditions: Table 27A
Procedure: VT-XRPD analysis was carried out on a Philips X'Pert Pro Multipurpose diffractometer equipped with a temperature chamber. The samples were scanned between 4 and 35.99°2θ using Cu K radiation (α1λ=1.54060 Å; α2=1.54443 Å; β=1.39225 Å; α1: α2 ratio=0.5) running in Bragg-Brentano geometry (step size 0.008°2θ) using 40 kV/40 mA generator settings.

[4] = Storage stability of Compound 3 forms (80° C., 40° C./75% RH, 25° C./60% RH, ambient); conditions: 1 week
Procedure: No changes by XRPD or HPLC purity were observed when the material was stored at 40° C./75% RH, 80° C. or under ambient conditions.

[5] = Thermogravimetric/differential thermal analysis (TG/DTA)
Procedure: Approximately, 5 mg of material was weighed into an open aluminium pan and loaded into a simultaneous thermogravimetric/differential thermal analyzer (TG/DTA) and held at room temperature. The sample was then heated at a rate of 10° C./min from 20° C. to 400° C. during which time the change in sample weight occurred was recorded along with any differential thermal events (DTA). Nitrogen was used as the purge gas at a flow rate of 300 cm^3/min.

[6] = Hygroscopicity / dynamic vapour sorption (DVS)
Procedure: (§1) Approximately, 10-20 mg of sample were placed into a mesh vapour sorption balance pan and loaded into a DVS Intrinsic dynamic vapour sorption balance by Surface Measurement Systems. The sample was subjected to a ramping profile from 40-90% relative humidity (RH) at 10% increments, maintaining the sample at each step until a stable weight had been achieved (dm/dt 0.004%, minimum step length 30 minutes, maximum step length 500 minutes) at 25° C. After completion of the sorption cycle, the sample was dried using the same procedure to 0% RH and then a second sorption cycle back to 40% RH. Two cycles were performed. The weight change during the sorption/desorption cycles were plotted, allowing for the hygroscopic nature of the sample to be determined. XRPD analysis was then carried out on any solid retained.
as §1, with “Approximately, 10” for “Approximately, 10-20”, “sample was” for “sample were”, “a DVS-1” for “a DVS Intrinsic”

[7] = Drying of isolated samples at 50° C. for approximately 24 hours
Procedure: Samples produced from thermal cycling, cooling and evaporation experiments were dried at 50° C. for approximately 24 hours to assess any de-solvation/dehydration. From temperature cycling experiments, 3 samples converted upon drying: • Acetonitrile sample converted from Form J to amorphous; • 40% Ethanol/60% Water (% v/v) converted from Form N to Form P; and • Methanol sample converted from Form O to amorphous.

[8] = Differential scanning calorimetry (DSC)
Procedure: DSC was performed using a TA Instruments 2920 or Q2000 differential scanning calorimeter. Temperature calibration was performed using NIST-traceable indium metal. The sample was placed into an aluminum DSC pan, covered with a lid, and the weight was accurately recorded. A weighed aluminum pan configured as the sample pan was placed on the reference side of the cell. The method code on the thermogram is an abbreviation for the start and end temperature as well as the heating rate; e.g., -30-250-10 means “from −30° C. to 250° C., at 10° C./min”. The following table summarizes the abbreviations used in each image for pan configurations: […]

CC(=O)c1nn(CC(=O)N2[C@H](C(=O)Nc3nc(Br)ccc3C)C[C@@]3(C)C[C@@H]23)c2ccc(-c3cnc(C)nc3)cc12 [Form J]
PLM [1]: Birefringent rods
solubility ([2]; FaSSGF): <10 µg/mL
solubility ([2]; FaSSIF): <10 µg/mL
solubility ([2]; FeSSIF): <10 µg/mL
VT-XRPD: Form J de-solvated to Pattern G [3]: Pattern G (120° C.)
1 week stability: 40° C./75% RH HPLC (uncapped) [4]: 99.8% (by relative area)
1 week stability: 80° C. HPLC (capped) [4]: 99.9% (by relative area)
1 week stability: 80° C. XRPD (capped) [4]: Pattern D
1 week stability: Ambient conditions HPLC (capped) [4]: 99.9% (by relative area)
Onset Temp: Solvent loss ([5]; Table 22B): loss 129.3, ° C.
Onset Temp: melting transition ([5]; Table 22B): 200.0 °C
TG/DTA: Melting ([5]; Table 27A): melting 206.7 °C
TG/DTA: Solvent loss ([5]; Table 27A): Solvent loss 138.5° C.,
Mass loss within the TG trace ([5]; up to 150° C.): 2.2 wt %
DVS analysis: hygroscopic nature ([6]; 25° C.): hygroscopic
DVS: hygroscopicity ([6]; Table 27A): Hygroscopic first
XRPD post DVS ([6]; Table 27A): Form B
Post-DVS XRPD analysis ([6]; after DVS): pattern D
DVS uptake ([6]; first sorption cycle): 6.9 wt %
DVS uptake as equivalents of water ([6]; first sorption cycle): 2.5 equiv. water
DVS uptake ([6]; second sorption cycle): 5.2 wt %
DVS uptake as equivalents of water ([6]; second sorption cycle): 1.8 equiv. water
Form after drying (de-solvation/dehydration) [7]: amorphous
Thermal events from SSCI report: Exothermic base line shifts ([8]; SSCI report): ~134° C., apparent
Thermal events from SSCI report: apparent melt onset ([8]; SSCI report): melt onset 83 °C
DSC: Melting ([8]; onset, Table 27A): melting 202.9 °C
DSC: Solvent loss ([8]; onset, Table 27A): Solvent loss 138.5 °C
DSC: Melting (peak) ([8]; peak, Table 27A): (peak 213.3° C.)
DSC: Solvent loss (peak) ([8]; peak, Table 27A): (peak 152.4° C.)
